Data reported in patent US8034314B2, “Photoreactive compound specifically binding to calcium binding proteins” (priority 2004, dated 2011).

Assays:
[1] = biological target: T1, Pyruvate kinase (Oryctolagus cuniculus, UniProt P11974); test: Pyruvate kinase activity; assay type: biochemical; details: AzRu 100 μM; mean ± SEM
T1 construct: purchased Sigma
Text: (§1) Unlabelled ryanodine was obtained from Calbiochem. […] Ruthenium chloride was purchased from Aldrich.

[2] = biological target: T2, Luciferase (Photinus pyralis, UniProt P08659); test: Luciferase activity; assay type: biochemical; details: mean ± SEM
T2 construct: purchased Sigma
Text: as §1

[3] = tested on: (Na+/K+)ATPase; test: (Na+/K+)ATPase activity; assay type: biochemical; details: mean ± SEM
[4] = biological target: K+ channel (KCKN0) (Drosophila melanogaster, UniProt Q94526); test: K+ channel (KCKN0) activity; assay type: biochemical; details: AzRu 20 μM; mean ± SEM
[5] = tested on: Glutamate dehydrogenase; test: Glutamate dehydrogenase activity; assay type: biochemical; details: AzRu 100 μM; mean ± SEM
Text: as §1

[6] = tested on: Lactate dehydrogenase; test: Lactate dehydrogenase activity; assay type: biochemical; details: AzRu 100 μM; mean ± SEM
Text: as §1

[7] = tested on: glucose 6-phosphate dehydrogenase; test: G-6-P dehydrogenase activity; assay type: biochemical; details: AzRu 100 μM; mean ± SEM
Text: as §1

[8] = tested on: glyceraldehyde 3-phosphate dehydrogenase; test: GAP dehydrogenase activity; assay type: biochemical; details: AzRu 100 μM; mean ± SEM
Text: as §1

[9] = tested on: Succinate-cytochrome c oxido-reductase; test: Electron transport from succinate to cytochrome c in mitochondria; assay type: biochemical, rat
Method: Sarcoplasmic reticulum (SR) membranes were prepared from rabbit fast twitch skeletal muscle as described by Saito [Saito et al.: J. Cell Biol. 99 (1984) 875-85]. Mitochondria were isolated from rat liver as described by us previously [Gincel D. et al.: Biochem J. 358 (2001) 147-55]. VDAC was purified by a method developed in our laboratory, using columns of hydroxyapatite and reactive red agarose [Gincel D. et al.: J. Bioenerget. Biomembr. 32 (2000) 571-83].
Ca^2+-accumulation in freshly prepared mitochondria (0.5 mg/ml) was assayed for 1 to 20 minutes at 30° C. in the presence of 225 mM mannitol, 75 mM sucrose, 120 μM CaCl2 (containing 3×10^4 cpm/nmol ^45Ca^2+), 5 mM HEPES/KOH pH 7.0, and 5 mM succinate with 0.1 mM Pi, or 4 mM MgCl2 with 3 mM ATP. The Ca^2+-uptake was terminated by rapid Millipore filtration, followed by a wash with 5 ml of 0.15 M KCl. The Ca^2+-accumulation in SR was determined as described previously [Shoshan-Barmatz V. & Shaineberg A.: Biochim. Biophys. Acta 1065 (1991) 82-8]. Electron transport from succinate to cytochrome c was described in above cited article [Gincel D. et al.: J. Bioenerget. Biomembr. 32 (2000) 571-83].
The effect of AzRu on mitochondrial process of electron transport from the donor succinate to the acceptor cytochrome c was characterized as described above. […]

[10] = biological target: Lysozyme (Gallus gallus, UniProt P00698); test: Lysozyme activity; assay type: biochemical; details: AzRu 100 μM; mean ± SEM
[11] = biological target: T3, Aldolase (Oryctolagus cuniculus, UniProt P00883); test: Aldolase activity; assay type: biochemical; details: AzRu 100 μM; mean ± SEM
T3 construct: purchased Sigma
Text: as §1

[12] = biological target: T4, Catalase (Bos taurus, UniProt P00432); test: Catalase activity; assay type: biochemical, bovine; details: AzRu 100 μM; mean ± SEM
T4 construct: bovine liver catalase; purchased Sigma; host or cells: bovine liver
Text: as §1

[13] = biological target: T5, Choline oxidase (Arthrobacter globiformis, UniProt Q7X2H8); test: Choline oxidase activity; assay type: biochemical; details: AzRu 100 μM; mean ± SEM
T5 construct: purchased Sigma
Text: as §1

[14] = tested on: U-937 human monocytic cell line; test: STS-induced apoptotic cell death of U-937 cells (acridine orange/ethidium bromide staining); assay type: cell-based; details: for Reduction of STS-activated apoptotic cell death: AzRu 10 μM added 18 h before STS 1.25 μM
Method: The U-937 human monocytic cell line was grown under an atmosphere of 95% air and 5% CO2 in RPMI 1640 supplemented with 10% fetal calf serum (FCS), 1 mM L-glutamine, 100 U/ml penicillin, and 100 μg/ml streptomycin. Cells were plated at a density of 5.4×10^4 cells/cm^2 in 24-well plates and then incubated with or without AzRu for 18 hr before exposure to 1.25 μM staurosporine (STS) to induce apoptosis. Cell viability was analyzed 5 and 7 hrs after STS addition by staining with 100 μg/ml acridine orange (AcOr) and 100 μg/ml ethidium bromide (EtBr) in PBS. The cells were then visualized by fluorescence microscopy (Olympus IX51) and images were recorded on an Olympus DP70 camera, using an SWB filter.
AzRu had no effect on the viability of the cells that were not exposed to STS. In FIG. 13 A, U-937 cells were incubated without (a, c) or with AzRu (10 μM) (b,d) for 18 hrs and thereafter were exposed to STS (1.25 μM) (c and d). After five hours the cells were stained with acridine orange and ethidium bromide. Arrows indicate cells in early apoptotic state, represented as degraded nucleus, but with intact cell membrane (stained by acridine orange). Arrowheads indicate a late apoptotic state, as shown by the presence of a degraded nucleus (stained by both acridine orange and ethidium bromide). Scale bar, 20 μm. In FIG. 13 B, quantitative analysis of apoptotic cell death in control cells and cells exposed to AzRu was assessed 5 and 7 hr after their exposure to STS (1.25 by ANOVA and t-test. P<0.001 was considered statistically significant (***). Data are the means±SEM, n=3. In each independent experiment, approximately 200 cells were counted for each treatment.

[15] = tested on: Ca2+-dependent proteins; test: Activities of Ca2+-dependent proteins (summary of Table 1); assay type: biochemical; details: at ≦20 μM
[16] = tested on: Mg2+-dependent proteins and the Zn2+-sensitive KCNK0 channel; test: Activities of Mg2+-dependent proteins and Zn2+-sensitive KCNK0 channel (summary of Table 1); assay type: biochemical; details: at 100 μM
[17] = tested on: Alkaline phosphatase; details: AzRu 100 μM; mean ± SEM
Text: Aldolase, alkaline phosphatase, ATP, bovine liver catalase, choline oxidase, CM-cellulose, n-decane, glucose 6-phosphate dehydrogenase, glutamate dehydrogenase, glyceraldehyde 3-phosphate dehydrogenase, Hepes, yeast hexokinase, lactate dehydrogenase, leupeptin, luciferase, mannitol, horseradish peroxidase, PMSF, pyruvate kinase, soybean asolectin, sucrose, Tris and Triton X-100 were purchased from Sigma (St. Louis, Mo., USA). [^45Ca], [^103Ru] and [^3H]ryanodine were purchased from NEN® Life Science Products, Inc. (Boston, USA). Unlabelled ryanodine was obtained from Calbiochem. Sephadex LH-20 was purchased from Amersham Biosciences. n-Octyl-β-D-glucopyranoside (β-OG) was obtained from Bachem AG (Germany). Lauryl-(dimethyl)-amineoxide (LDAO) and ruthenium red (98% pure) were obtained from Fluka (Chemie, GmbH). Ruthenium chloride was purchased from Aldrich. Hydroxyapatite (Bio-Gel HTP) was purchased from Bio-Rad Laboratories (Hercules, Calif.) and Celite from Merck. Synthetic firefly D-luciferin reagent was purchased from Biosynth AG.

T2 sequence (P08659 whole entry): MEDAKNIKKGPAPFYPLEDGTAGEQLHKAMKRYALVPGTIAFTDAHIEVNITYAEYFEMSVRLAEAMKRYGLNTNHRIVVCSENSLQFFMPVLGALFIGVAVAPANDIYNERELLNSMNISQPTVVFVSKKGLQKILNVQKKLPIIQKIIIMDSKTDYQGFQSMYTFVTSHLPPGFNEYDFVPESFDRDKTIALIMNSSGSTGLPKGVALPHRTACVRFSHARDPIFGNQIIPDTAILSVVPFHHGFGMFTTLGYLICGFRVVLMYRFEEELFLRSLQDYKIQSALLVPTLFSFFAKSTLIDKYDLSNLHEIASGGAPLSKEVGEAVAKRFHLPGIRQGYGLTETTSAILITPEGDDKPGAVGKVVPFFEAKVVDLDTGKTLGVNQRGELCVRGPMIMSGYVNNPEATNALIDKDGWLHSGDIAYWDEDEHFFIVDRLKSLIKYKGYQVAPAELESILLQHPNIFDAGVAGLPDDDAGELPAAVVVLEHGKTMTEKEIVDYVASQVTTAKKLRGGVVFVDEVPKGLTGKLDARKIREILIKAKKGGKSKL
T4 sequence (P00432 whole entry): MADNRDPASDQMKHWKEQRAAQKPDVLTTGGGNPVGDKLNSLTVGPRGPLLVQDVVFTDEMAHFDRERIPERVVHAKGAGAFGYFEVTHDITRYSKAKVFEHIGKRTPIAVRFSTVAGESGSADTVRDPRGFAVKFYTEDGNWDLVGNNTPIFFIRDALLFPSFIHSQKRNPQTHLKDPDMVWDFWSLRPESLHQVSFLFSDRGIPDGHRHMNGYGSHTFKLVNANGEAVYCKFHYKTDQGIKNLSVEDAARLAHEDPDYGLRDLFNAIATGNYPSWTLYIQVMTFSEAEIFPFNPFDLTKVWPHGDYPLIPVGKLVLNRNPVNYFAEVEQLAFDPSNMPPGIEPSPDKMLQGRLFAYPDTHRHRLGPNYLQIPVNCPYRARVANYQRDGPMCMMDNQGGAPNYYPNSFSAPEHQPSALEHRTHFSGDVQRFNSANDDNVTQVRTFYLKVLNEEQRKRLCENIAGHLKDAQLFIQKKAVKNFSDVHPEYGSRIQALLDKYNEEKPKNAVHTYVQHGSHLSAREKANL
Chain of Lysozyme (P00698 19-147): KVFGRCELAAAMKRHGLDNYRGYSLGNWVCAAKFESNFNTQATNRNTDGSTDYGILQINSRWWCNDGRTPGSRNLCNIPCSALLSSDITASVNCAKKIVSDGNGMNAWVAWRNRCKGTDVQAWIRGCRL
Chain of K+ channel (KCKN0) (Q94526 whole entry): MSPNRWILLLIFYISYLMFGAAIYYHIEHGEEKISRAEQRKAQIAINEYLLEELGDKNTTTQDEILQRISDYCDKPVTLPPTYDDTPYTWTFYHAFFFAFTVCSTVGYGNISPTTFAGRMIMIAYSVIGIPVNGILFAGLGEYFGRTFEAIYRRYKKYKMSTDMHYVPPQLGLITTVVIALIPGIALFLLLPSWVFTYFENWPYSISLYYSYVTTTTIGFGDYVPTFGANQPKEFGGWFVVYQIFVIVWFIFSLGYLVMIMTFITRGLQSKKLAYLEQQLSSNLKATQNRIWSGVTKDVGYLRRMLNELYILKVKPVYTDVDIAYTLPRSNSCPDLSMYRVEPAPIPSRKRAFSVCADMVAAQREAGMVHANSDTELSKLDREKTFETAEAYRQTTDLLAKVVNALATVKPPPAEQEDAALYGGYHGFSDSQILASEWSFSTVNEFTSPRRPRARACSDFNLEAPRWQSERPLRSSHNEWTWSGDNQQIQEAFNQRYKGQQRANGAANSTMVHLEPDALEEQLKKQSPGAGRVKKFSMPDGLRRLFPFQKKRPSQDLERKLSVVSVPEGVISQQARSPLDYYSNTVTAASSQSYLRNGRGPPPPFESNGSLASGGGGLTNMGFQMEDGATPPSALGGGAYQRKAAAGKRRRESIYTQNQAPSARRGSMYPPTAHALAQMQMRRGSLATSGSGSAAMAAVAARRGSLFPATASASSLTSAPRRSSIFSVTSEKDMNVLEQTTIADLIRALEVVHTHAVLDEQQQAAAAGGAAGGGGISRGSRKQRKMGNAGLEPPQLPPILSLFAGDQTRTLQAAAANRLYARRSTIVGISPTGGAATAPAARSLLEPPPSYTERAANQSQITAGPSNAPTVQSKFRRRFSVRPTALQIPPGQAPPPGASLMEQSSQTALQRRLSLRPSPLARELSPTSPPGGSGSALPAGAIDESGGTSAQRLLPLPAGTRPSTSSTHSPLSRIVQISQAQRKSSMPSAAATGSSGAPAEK
T5 sequence (Q7X2H8 whole entry, species assumed): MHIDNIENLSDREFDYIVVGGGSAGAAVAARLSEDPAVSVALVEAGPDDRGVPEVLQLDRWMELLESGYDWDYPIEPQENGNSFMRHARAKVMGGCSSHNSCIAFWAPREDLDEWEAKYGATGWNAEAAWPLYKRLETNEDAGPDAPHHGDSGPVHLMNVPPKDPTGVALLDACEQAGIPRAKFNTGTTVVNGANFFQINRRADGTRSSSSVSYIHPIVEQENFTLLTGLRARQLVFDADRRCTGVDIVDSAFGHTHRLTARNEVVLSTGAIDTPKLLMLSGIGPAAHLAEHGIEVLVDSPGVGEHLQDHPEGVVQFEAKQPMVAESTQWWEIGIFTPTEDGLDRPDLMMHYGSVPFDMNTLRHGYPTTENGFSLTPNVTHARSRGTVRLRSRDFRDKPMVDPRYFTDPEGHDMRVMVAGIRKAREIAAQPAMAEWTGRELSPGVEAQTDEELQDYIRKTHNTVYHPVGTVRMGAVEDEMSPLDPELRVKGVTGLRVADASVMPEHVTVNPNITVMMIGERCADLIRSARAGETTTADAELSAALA
T3 sequence (P00883 2-364 limits assumed): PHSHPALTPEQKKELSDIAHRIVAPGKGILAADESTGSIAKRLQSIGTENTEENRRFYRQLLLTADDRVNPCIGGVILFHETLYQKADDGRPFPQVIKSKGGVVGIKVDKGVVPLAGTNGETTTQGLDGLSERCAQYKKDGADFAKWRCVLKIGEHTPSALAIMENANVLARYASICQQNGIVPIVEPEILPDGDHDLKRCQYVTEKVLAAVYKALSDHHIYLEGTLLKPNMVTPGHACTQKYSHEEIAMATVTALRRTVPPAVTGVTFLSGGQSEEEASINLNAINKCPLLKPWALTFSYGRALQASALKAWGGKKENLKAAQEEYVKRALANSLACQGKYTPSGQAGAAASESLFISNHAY
T1 sequence (P11974 2-531 limits assumed): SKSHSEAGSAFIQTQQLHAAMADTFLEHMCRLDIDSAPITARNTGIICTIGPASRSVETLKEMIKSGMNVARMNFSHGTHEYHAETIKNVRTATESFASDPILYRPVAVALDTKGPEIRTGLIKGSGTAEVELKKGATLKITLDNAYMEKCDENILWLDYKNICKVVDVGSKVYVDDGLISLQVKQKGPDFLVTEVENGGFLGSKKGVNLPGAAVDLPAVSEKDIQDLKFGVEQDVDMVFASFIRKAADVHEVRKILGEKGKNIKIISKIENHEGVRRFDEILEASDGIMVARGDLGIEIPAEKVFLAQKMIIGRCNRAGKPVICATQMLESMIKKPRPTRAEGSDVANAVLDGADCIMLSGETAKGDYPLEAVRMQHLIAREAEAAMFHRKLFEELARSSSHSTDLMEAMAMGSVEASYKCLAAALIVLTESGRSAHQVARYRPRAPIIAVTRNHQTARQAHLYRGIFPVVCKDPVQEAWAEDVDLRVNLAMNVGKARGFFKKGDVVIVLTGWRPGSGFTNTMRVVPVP

With azido-ruthenium [AzRu] the “Activity (% of control), Pyruvate kinase” value [1] was 81 ± 6 % of control, the “Activity (% of control), Luciferase” value ([2]; AzRu 20 μM) was 97 ± 1 % of control and the “Activity (% of control), Luciferase” value ([2]; AzRu 100 μM) was 67 ± 3 % of control. The “Activity (% of control), (Na+/K+)ATPase” value ([3]; AzRu 20 μM) was 92 ± 5 % of control, the “Activity (% of control), (Na+/K+)ATPase” value ([3]; AzRu 100 μM) was 71 ± 4 % of control and the “Activity (% of control), K+ channel (KCKN0)” value [4] was 100 ± 0.3 % of control. For the same substance, the “Activity (% of control), Glutamate dehydrogenase” value [5] was 101 ± 5 % of control, the “Activity (% of control), Lactate dehydrogenase” value [6] was 91 ± 4 % of control and the “Activity (% of control), G-6-P dehydrogenase” value [7] was 101 ± 7 % of control. The “Activity (% of control), GAP dehydrogenase” value [8] was 102 ± 5 % of control, the “Activity (% of control), Succinate-cytochrome c oxido-reductase” value ([9]; AzRu 100 μM, mean ± SEM) was 95 ± 5 % of control and the “Effect on electron transfer from succinate to cytochrome c in mitochondria” value ([9]; isolated mitochondria, FIG. 7) was “not affected”. The “Activity (% of control), Lysozyme” value [10] was 101 ± 3 % of control, the “Activity (% of control), Aldolase” value [11] was 78 ± 7 % of control and the “Activity (% of control), Catalase” value [12] was 118 ± 8 % of control. For the same substance, the “Activity (% of control), Choline oxidase” value [13] was 85 ± 3 % of control, the “Reduction of STS-activated apoptotic cell death” value ([14]; 5 h of exposure to STS) was “about 75%” and the “Reduction of STS-activated apoptotic cell death” value ([14]; 7 h of exposure to STS) was about 47%. For the same substance, the “Effect on viability of cells not exposed to STS” value ([14]; U-937 cells, no STS) was “no effect”, the “Inhibition of activities of Ca2+-dependent proteins” value [15] was “up to 90%” and the “Inhibition of activities of Mg2+-dependent proteins and Zn2+-sensitive KCNK0 channel” value [16] was about 30%. The “Activity (% of control), Alkaline phosphatase” value [17] was 86 ± 5 % of control.
